# Data reported in US20230322846A9, “NEUROACTIVE STEROIDS AND THEIR METHODS OF USE” (SAGE THERAPEUTICS, INC., priority 2018, published 2023).
# Molecular target: [35S]-TBPS binding, rat brain cortical membranes
# Experiment: Steroid inhibition of [35S]-TBPS binding
# Settings: 3 nM [35S]-TBPS, in the presence of 5 mM GABA
# Method in brief: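 Rat cortical P2 membranes incubated 90 min at room temperature with 3 nM [35S]-TBPS, […] and test compound (0.5% DMSO final) in NaCl/Na–K phosphate pH 7.4; nonspecific binding with […]. Filter-bound radioactivity counted; IC50 and Imax from nonlinear fits, mean ± SEM.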
row,SMILES,IC50 [nM]
1,"CCC[C@@]1(O)CC[C@H]2[C@@H](CC[C@@H]3[C@@H]2CC[C@]2(C)[C@@H]([C@H](C)Cn4nnc(C)n4)CC[C@@H]32)C1 [Example 330, (3R,5S,8R,9R,10S,13S,14S,17R)-13-methyl-17-((S)-1-(5-methyl-2H-tetrazol-2-yl)propan-2-yl)-3-propylhexadecahydro-1H-cyclopenta[a]phenanthren-3-ol]",≥ 10000
2,"CCC[C@@]1(O)CC[C@H]2[C@@H](CC[C@@H]3[C@@H]2CC[C@]2(C)[C@@H]([C@H](C)Cn4nnnc4C)CC[C@@H]32)C1 [Example 331, (3R,5S,8R,9R,10S,13S,14S,17R)-13-methyl-17-((S)-1-(5-methyl-1H-tetrazol-1-yl)propan-2-yl)-3-propylhexadecahydro-1H-cyclopenta[a]phenanthren-3-ol]",≥ 10000
3,"CC[C@@]1(O)CC[C@H]2[C@@H](CC[C@@H]3[C@@H]2CC[C@]2(C)[C@@H]([C@@H](C)Cn4nnc(C)n4)CC[C@@H]32)C1 [Example 333, (3R,5S,8R,9R,10S,13S,14S,17R)-3-ethyl-13-methyl-17-((R)-1-(5-methyl-2H-tetrazol-2-yl)propan-2-yl)hexadecahydro-1H-cyclopenta[a]phenanthren-3-ol]",100 to 1000
4,"CC[C@@]1(O)CC[C@H]2[C@@H](CC[C@@H]3[C@@H]2CC[C@]2(C)[C@@H]([C@H](C)Cn4nnc(C)n4)CC[C@@H]32)C1 [Example 334, (3R,5S,8R,9R,10S,13S,14S,17R)-3-ethyl-13-methyl-17-((S)-1-(5-methyl-2H-tetrazol-2-yl)propan-2-yl)hexadecahydro-1H-cyclopenta[a]phenanthren-3-ol]",≥ 10000
5,"CC[C@@]1(O)CC[C@H]2[C@@H](CC[C@@H]3[C@@H]2CC[C@]2(C)[C@@H]([C@@H](C)Cn4nnnc4C)CC[C@@H]32)C1 [Example 335, (3R,5S,8R,9R,10S,13S,14S,17R)-3-ethyl-13-methyl-17-((R)-1-(5-methyl-1H-tetrazol-1-yl)propan-2-yl)hexadecahydro-1H-cyclopenta[a]phenanthren-3-ol]",100 to 1000
6,"CC[C@@]1(O)CC[C@H]2[C@@H](CC[C@@H]3[C@@H]2CC[C@]2(C)[C@@H]([C@H](C)Cn4nnnc4C)CC[C@@H]32)C1 [Example 336, (3R,5S,8R,9R,10S,13S,14S,17R)-3-ethyl-13-methyl-17-((S)-1-(5-methyl-1H-tetrazol-1-yl)propan-2-yl)hexadecahydro-1H-cyclopenta[a]phenanthren-3-ol]",≥ 10000
7,"CCC[C@@]1(O)CC[C@@]2(C)[C@H](CC[C@@H]3[C@@H]2[C@H](O)C[C@]2(C)[C@@H]([C@@H](C)Cn4cc(C#N)cn4)CC[C@@H]32)C1 [Example 337, 1-((R)-2-((3R,5R,8S,9S,10S,11R,13S,14S,17R)-3,11-dihydroxy-10,13-dimethyl-3-propylhexadecahydro-1H-cyclopenta[a]phenanthren-17-yl)propyl)-1H-pyrazole-4-carbonitrile]",100 to 1000
8,"CCC[C@@]1(O)CC[C@@]2(C)[C@H](CC[C@@H]3[C@@H]2[C@H](O)C[C@]2(C)[C@@H]([C@H](C)Cn4cc(C#N)cn4)CC[C@@H]32)C1 [Example 338, 1-((S)-2-((3R,5R,8S,9S,10S,11R,13S,14S,17R)-3,11-dihydroxy-10,13-dimethyl-3-propylhexadecahydro-1H-cyclopenta[a]phenanthren-17-yl)propyl)-1H-pyrazole-4-carbonitrile]",100 to 1000
9,"C[C@H](Cn1cc(C#N)cn1)[C@H]1CC[C@H]2[C@@H]3CC[C@@H]4C[C@@](O)(C5CC5)CC[C@@H]4[C@H]3CC[C@]12C [Example 342, 1-((S)-2-((3R,5R,8R,9R,10S,13S,14S,17R)-3-cyclopropyl-3-hydroxy-13-methylhexadecahydro-1H-cyclopenta[a]phenanthren-17-yl)propyl)-1H-pyrazole-4-carbonitrile]",100 to 1000
10,"CC(C)[C@@]1(O)CC[C@H]2[C@H](CC[C@@H]3[C@@H]2CC[C@]2(C)[C@@H]([C@@H](C)Cn4cc(C#N)cn4)CC[C@@H]32)C1 [Example 343, 1-((R)-2-((3R,5R,8R,9R,10S,13S,14S,17R)-3-hydroxy-3-isopropyl-13-methylhexadecahydro-1H-cyclopenta[a]phenanthren-17-yl)propyl)-1H-pyrazole-4-carbonitrile]",100 to 1000
11,"CC(C)[C@@]1(O)CC[C@H]2[C@H](CC[C@@H]3[C@@H]2CC[C@]2(C)[C@@H]([C@H](C)Cn4cc(C#N)cn4)CC[C@@H]32)C1 [Example 344, 1-((S)-2-((3R,5R,8R,9R,10S,13S,14S,17R)-3-hydroxy-3-isopropyl-13-methylhexadecahydro-1H-cyclopenta[a]phenanthren-17-yl)propyl)-1H-pyrazole-4-carbonitrile]",≥ 10000
12,"C[C@@H](Cn1cc(C#N)cn1)[C@@]1(O)CC[C@H]2[C@@H]3CC[C@@H]4C[C@](C)(O)CC[C@@H]4[C@H]3CC[C@@]21C [Example 345, 1-((S)-2-((3R,5R,8R,9R,10S,13S,14S,17S)-3,17-dihydroxy-3,13-dimethylhexadecahydro-1H-cyclopenta[a]phenanthren-17-yl)propyl)-1H-pyrazole-4-carbonitrile]",1000 to 10000
13,"C[C@H](Cn1cc(C#N)cn1)[C@@]1(O)CC[C@H]2[C@@H]3CC[C@@H]4C[C@](C)(O)CC[C@@H]4[C@H]3CC[C@@]21C [Example 346, 1-((R)-2-((3R,5R,8R,9R,10S,13S,14S,17S)-3,17-dihydroxy-3,13-dimethylhexadecahydro-1H-cyclopenta[a]phenanthren-17-yl)propyl)-1H-pyrazole-4-carbonitrile]",1000 to 10000
14,"CCC[C@@]1(O)CC[C@H]2[C@H](CC[C@@H]3[C@@H]2CC[C@@]2(C)[C@H]3CC[C@]2(O)[C@@H](C)Cn2cc(C#N)cn2)C1 [Example 347, 1-((S)-2-((3R,5R,8R,9R,10S,13S,14S,17S)-3,17-dihydroxy-13-methyl-3-propylhexadecahydro-1H-cyclopenta[a]phenanthren-17-yl)propyl)-1H-pyrazole-4-carbonitrile]",1000 to 10000
15,"CCC[C@@]1(O)CC[C@H]2[C@H](CC[C@@H]3[C@@H]2CC[C@@]2(C)[C@H]3CC[C@]2(O)[C@H](C)Cn2cc(C#N)cn2)C1 [Example 348, 1-((R)-2-((3R,5R,8R,9R,10S,13S,14S,17S)-3,17-dihydroxy-13-methyl-3-propylhexadecahydro-1H-cyclopenta[a]phenanthren-17-yl)propyl)-1H-pyrazole-4-carbonitrile]",1000 to 10000
16,"CCC[C@@]1(O)CC[C@H]2[C@@H](CC[C@@H]3[C@@H]2CC[C@]2(C)[C@@H]([C@@H](C)Cn4cc(C#N)cn4)CC[C@@H]32)C1 [Example 349, 1-((R)-2-((3R,5S,8R,9R,10S,13S,14S,17R)-3-hydroxy-13-methyl-3-propylhexadecahydro-1H-cyclopenta[a]phenanthren-17-yl)propyl)-1H-pyrazole-4-carbonitrile]",≥ 10000
